Data published in US6624176B2, “Heteroaromatic substituted amides with antagonistic activity to neurokinin 1 receptors” (Hoffmann-La Roche Inc., priority 2001, dated 2003).

tested on: not given; assay: not given; conditions: not given

SMILES	melting point
Cc1ccccc1-c1cc(-n2cncn2)ncc1C(=O)N(C)Cc1cc(C(F)(F)F)cc(C(F)(F)F)c1 [Example 1, N-(3,5-Bis-trifluoromethyl-benzyl)-N-methyl-4-o-tolyl-6-[1,2,4]triazol-1-yl-nicotinamide]	91 to 93 °C
Cc1ccccc1-c1cc(N2CCC(O)CC2)ncc1C(=O)N(C)Cc1cc(C(F)(F)F)cc(C(F)(F)F)c1 [Example 3, 4-Hydroxy-4′-o-tolyl-3,4,5,6-tetrahydro-2H-[1,2′]bipyridinyl-5′-carboxylic acid (3,5-bis-trifluoromethyl-benzyl)-methyl-amide]	150 to 152 °C

target: T1, human NK1 receptor (Homo sapiens, UniProt P25103); assay: NK1 receptor binding assay, [3H]substance P displacement; conditions: affinity to the NK-1 receptor; human NK1 receptors in CHO cells; [3H]substance P 0.6 nM
T1 construct: expressed in transfected cells; host or cells: CHO cells infected using the Semliki virus expression system; membrane suspension
T1 sequence (P25103 whole entry): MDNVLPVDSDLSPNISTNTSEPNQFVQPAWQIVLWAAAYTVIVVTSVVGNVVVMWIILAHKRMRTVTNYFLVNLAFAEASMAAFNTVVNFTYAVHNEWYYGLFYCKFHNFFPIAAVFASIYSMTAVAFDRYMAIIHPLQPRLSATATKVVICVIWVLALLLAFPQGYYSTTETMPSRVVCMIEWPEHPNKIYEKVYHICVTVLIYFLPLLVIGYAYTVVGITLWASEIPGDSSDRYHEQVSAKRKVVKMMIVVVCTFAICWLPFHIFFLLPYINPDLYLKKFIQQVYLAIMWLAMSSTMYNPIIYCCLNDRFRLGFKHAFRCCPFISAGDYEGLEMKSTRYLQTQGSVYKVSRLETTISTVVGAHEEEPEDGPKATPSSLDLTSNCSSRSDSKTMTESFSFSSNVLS
Procedure: The affinity of test compounds for the NK1 receptor was evaluated at human NK1 receptors in CHO cells infected with the human NK1 receptor (using the Semliki virus expression system) and radiolabelled with [^3H]substance P (final concentration 0.6 nM). Binding assays were performed in HEPES buffer (50 mM, pH 7.4) containing BSA (0.04%) leupeptin (8 μg/ml), MnCI2 (3 mM) and phosphoramidon (2 μM). Binding assays consisted of 250 μl of membrane suspension (1.25×10^5 cells/assay tube), […] of buffer of displacing agent and 125 μl of [^3H]substance P. Displacement curves were determined with at least seven concentrations of the compound. The assay tubes were incubated for 60 min at room temperature after which time the tube contents were rapidly filtered under vacuum through GF/C filters presoaked for 60 min with PEI (0.3%) with 2×2 ml washes of HEPES buffer (50 mM, pH 7.4). The radioactivity retained on the filters was measured by scintillation counting. All assays were performed in triplicate in at least 2 separate experiments.

SMILES	Ki
Cc1ccccc1-c1cc(-n2cncn2)ncc1C(=O)N(C)Cc1cc(C(F)(F)F)cc(C(F)(F)F)c1 [Example 1, N-(3,5-Bis-trifluoromethyl-benzyl)-N-methyl-4-o-tolyl-6-[1,2,4]triazol-1-yl-nicotinamide]	3.98 nM
Cc1ccccc1-c1cc(NCCO)ncc1C(=O)N(C)Cc1cc(C(F)(F)F)cc(C(F)(F)F)c1 [Example 2, N-(3,5-Bis-trifluoromethyl-benzyl)-6-(2-hydroxy-ethylamino)-N-methyl-4-o-tolyl-nicotinamide]	1.35 nM
Cc1ccccc1-c1cc(N2CCC(O)CC2)ncc1C(=O)N(C)Cc1cc(C(F)(F)F)cc(C(F)(F)F)c1 [Example 3, 4-Hydroxy-4′-o-tolyl-3,4,5,6-tetrahydro-2H-[1,2′]bipyridinyl-5′-carboxylic acid (3,5-bis-trifluoromethyl-benzyl)-methyl-amide]	1.23 nM
Cc1ccccc1-c1cc(N2CCC(OCCO)CC2)ncc1C(=O)N(C)Cc1cc(C(F)(F)F)cc(C(F)(F)F)c1 [Example 4, 4-(2-Hydroxy-ethoxy)-4′-o-tolyl-3,4,5,6-tetrahydro-2H-[1,2′]bipyridinyl-5′-carboxylic acid (3,5-bis-trifluoromethyl-benzyl)-methyl-amide]	0.933 nM
Cc1ccccc1-c1cc(N2CC[C@@H](O)C2)ncc1C(=O)N(C)Cc1cc(C(F)(F)F)cc(C(F)(F)F)c1 [Example 5, (R)-N-(3,5-Bis-trifluoromethyl-benzyl)-6-(3-hydroxy-pyrrolidin-1-yl)-N -methyl-4-o-tolyl-nicotinamide]	0.575 nM
CN(Cc1cc(C(F)(F)F)cc(C(F)(F)F)c1)C(=O)c1cnc(N2CCC(O)CC2)cc1-c1ccccc1Cl [Example 6, 4′-(2-Chloro-phenyl)-4-hydroxy-3,4,5,6-tetrahydro-2H-[1,2′]bipyridinyl-5′-carboxylic acid (3,5-bis-trifluoromethyl-benzyl)-methyl-amide]	0.661 nM
Cc1ccccc1-c1cc(NCCO)ncc1N(C)C(=O)C(C)(C)c1cc(C(F)(F)F)cc(C(F)(F)F)c1 [Example 7, 2-(3,5-Bis-trifluoromethyl-phenyl)-N-[6-(2-hydroxy-ethylamino)-4-o-toyl-pyridin-3-yl]-N-methyl-isobutyramide]	0.692 nM
CN(C(=O)C(C)(C)c1cc(C(F)(F)F)cc(C(F)(F)F)c1)c1cnc(NCCO)cc1-c1ccccc1Cl [Example 8, 2-(3,5-Bis-trifluofomethyl-phenyl)-N-[4-(2-chloro-phenyl)-6-(2-hydroxy-ethylamino)-pyridin-3-yl]-N-methyl-isobutyramide]	0.724 nM
Cc1ccccc1-c1cc(N2C=COCC2)ncc1N(C)C(=O)C(C)(C)c1cc(C(F)(F)F)cc(C(F)(F)F)c1 [Example 9, 2-(3,5-Bis-trifluoromethyl-phenyl)-N-[6-(2,3-dihydro-[1,4]oxazin-4-yl)-4-o-tolyl-pyridin-3-yl]-N-methyl-isobutyramide]	1.48 nM
CC(=O)Nc1cc(-c2ccccc2C)c(N(C)C(=O)C(C)(C)c2cc(C(F)(F)F)cc(C(F)(F)F)c2)cn1 [Example 10, N-(6-Acetylamino-4-o-tolyl-pyridin-3-yl)-2-(3,5-bis-trifluoromethyl-phenyl)-N-methyl-isobutyramide]	2.51 nM
CC(=O)N(C)c1cc(-c2ccccc2C)c(N(C)C(=O)C(C)(C)c2cc(C(F)(F)F)cc(C(F)(F)F)c2)cn1 [Example 11, N-[6-(Acetyl-methyl-amino)-4-o-tolyl-pyridin-3-yl]-2-(3,5-bis-trifluoromethyl-phenyl)-N-methyl-isobutyramide]	1.95 nM
Cc1ccccc1-c1cc(NC(=O)C2CC2)ncc1N(C)C(=O)C(C)(C)c1cc(C(F)(F)F)cc(C(F)(F)F)c1 [Example 12, Cyclopropanecarboxylic acid (5-{[2-(3,5-bis-trifluoromethyl-phenyl)-2-methyl-propionyl]-methyl-amino}-4-o-tolyl-pyridin-2-yl)-amide]	2.24 nM
Cc1ccccc1-c1cc(N(C)C(=O)C2CC2)ncc1N(C)C(=O)C(C)(C)c1cc(C(F)(F)F)cc(C(F)(F)F)c1 [Example 13, Cyclopropanecarboxylic acid (5-{[2-(3,5-bis-trifluoromethyl-phenyl)-2-methyl-propionyl]-methyl-amino}-4-o-tolyl-pyridin-2-yl)-methyl-amide]	1.35 nM
Cc1ccccc1-c1cc(-n2ccnc2)ncc1N(C)C(=O)C(C)(C)c1cc(C(F)(F)F)cc(C(F)(F)F)c1 [Example 14, 2-(3,5-Bis-trifluoromethyl-phenyl)-N-(6-imidazol-1-yl-4-o-tolyl-pyridin-3-yl)-N-methyl-isobutyramide]	2.24 nM
